Data as given in article PMC3742539, “ε Subunit of Bacillus subtilis F1-ATPase Relieves MgADP Inhibition” (PLoS ONE, 2013).

Columns and labels:
[1] = biological target: T1, α3β3γ complex of BF1 (F1-ATPase from Bacillus subtilis) (Bacillus subtilis, UniProt P37808+P37809); assay: residual initial ATPase activity ([…]-4 s) after preincubation with MgADP; assay type: biochemical; settings: read-out: % inhibition at 1:1 MgADP (5 μM)
T1 construct: gene atpD; recombinant α3β3γ subcomplex without δ and ε; His6-tag at N-terminus of β (kept); initiation codons of α and γ changed to ATG; expressed in E. coli BL21(DE3) from pET21-BF1; nucleotide-free; with ATP synthase gamma chain
T1 sequence (P37809 whole entry): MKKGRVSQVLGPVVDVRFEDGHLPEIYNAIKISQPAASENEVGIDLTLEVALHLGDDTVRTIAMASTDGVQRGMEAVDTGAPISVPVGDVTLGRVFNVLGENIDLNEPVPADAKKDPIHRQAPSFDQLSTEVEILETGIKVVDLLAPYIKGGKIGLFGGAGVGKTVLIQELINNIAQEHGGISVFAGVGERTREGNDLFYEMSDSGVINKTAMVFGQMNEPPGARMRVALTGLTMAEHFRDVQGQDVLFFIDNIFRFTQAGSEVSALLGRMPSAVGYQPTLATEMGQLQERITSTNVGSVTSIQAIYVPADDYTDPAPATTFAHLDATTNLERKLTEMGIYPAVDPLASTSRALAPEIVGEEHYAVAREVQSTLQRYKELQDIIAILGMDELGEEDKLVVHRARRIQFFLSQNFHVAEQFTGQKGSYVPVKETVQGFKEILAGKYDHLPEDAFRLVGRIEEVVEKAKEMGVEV
T1 sequence (P37808 2-502): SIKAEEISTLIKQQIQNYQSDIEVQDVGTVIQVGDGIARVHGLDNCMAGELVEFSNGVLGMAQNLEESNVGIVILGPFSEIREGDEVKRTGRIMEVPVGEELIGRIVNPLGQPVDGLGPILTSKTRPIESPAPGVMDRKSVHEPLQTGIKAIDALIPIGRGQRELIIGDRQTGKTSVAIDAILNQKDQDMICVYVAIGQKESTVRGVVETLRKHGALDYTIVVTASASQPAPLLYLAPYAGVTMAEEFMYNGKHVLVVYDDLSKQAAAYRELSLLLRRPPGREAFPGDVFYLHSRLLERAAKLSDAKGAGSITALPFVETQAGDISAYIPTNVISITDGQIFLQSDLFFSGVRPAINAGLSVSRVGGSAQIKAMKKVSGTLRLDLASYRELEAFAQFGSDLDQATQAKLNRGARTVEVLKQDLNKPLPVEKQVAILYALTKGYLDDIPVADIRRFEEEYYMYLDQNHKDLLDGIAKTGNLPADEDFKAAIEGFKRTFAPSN
T1 sequence (P37810 whole entry, further chain): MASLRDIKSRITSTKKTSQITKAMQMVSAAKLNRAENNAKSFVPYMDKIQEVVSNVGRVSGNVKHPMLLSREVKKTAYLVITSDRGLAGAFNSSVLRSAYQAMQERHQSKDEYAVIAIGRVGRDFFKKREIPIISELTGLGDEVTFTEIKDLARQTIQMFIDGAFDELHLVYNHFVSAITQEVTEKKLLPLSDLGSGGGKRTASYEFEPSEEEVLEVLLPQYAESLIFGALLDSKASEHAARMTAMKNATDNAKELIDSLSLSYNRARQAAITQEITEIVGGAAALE

[2] = biological target: T2, α3β3γε complex of BF1 (F1-ATPase from Bacillus subtilis) (Bacillus subtilis, UniProt P37808+P37809); assay: as above; assay type: biochemical; settings: read-out: % inhibition at 1:1 MgADP (5 μM)
T2 construct: gene atpD; recombinant α3β3γ (His6-tag at N-terminus of β, kept) reconstituted with excess separately purified BF1 ε subunit; no δ; E. coli expression; with ATP synthase gamma chain; ATP synthase epsilon chain
T2 sequence (P37812 whole entry): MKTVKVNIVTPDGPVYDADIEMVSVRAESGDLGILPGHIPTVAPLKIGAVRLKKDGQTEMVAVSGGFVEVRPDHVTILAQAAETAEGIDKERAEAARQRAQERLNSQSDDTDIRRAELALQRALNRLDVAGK
T2 sequence (P37809 whole entry): as the sequence (P37809 whole entry) above
T2 sequence (P37808 2-502): as the sequence (P37808 2-502) above
T2 sequence (P37810 whole entry, further chain): as the sequence (P37810 whole entry, further chain) above

inhibition at 5 µM [1]: ~50%
inhibition at 5 µM [2]: ~20%
Compound: Nc1ncnc2c1ncn2[C@@H]1O[C@H](COP(=O)(O)OP(=O)(O)O)[C@@H](O)[C@H]1O [MgADP]
